Among the data in ChEMBL document CHEMBL4270587, “Difuran-substituted quinoxalines as a novel class of PI3Kα H1047R mutant inhibitors: Synthesis, biological evaluation and structure-activity relationship” (Eur J Med Chem, 2018) are IC50 and EC50 values, retold here.

Each structure is given as a SMILES string.

One test has as its system MCF7. Nature of the test: cells. The note with it: Homo sapiens, MCF7, 72 h.
In another test the test system is HCT-116. Nature of the test: cells. The note with it: Homo sapiens, HCT-116, 72 h.
Test [1] addresses PI3-kinase p110-alpha/p85-alpha (Homo sapiens, UniProt P42336, H1047R). The experiment in a line: Inhibition of recombinant full length PI3K p85alpha/p110alpha H1047R mutant (unknown origin) expressed in baculovirus infected sf9 cells using PIP2 as substrate preincubated for 10 mins followed by ATP addition and measured after 45 mins by HTRF assay.

Sequence of PI3-kinase p110-alpha/p85-alpha (P42336 whole entry H1047R, looked up): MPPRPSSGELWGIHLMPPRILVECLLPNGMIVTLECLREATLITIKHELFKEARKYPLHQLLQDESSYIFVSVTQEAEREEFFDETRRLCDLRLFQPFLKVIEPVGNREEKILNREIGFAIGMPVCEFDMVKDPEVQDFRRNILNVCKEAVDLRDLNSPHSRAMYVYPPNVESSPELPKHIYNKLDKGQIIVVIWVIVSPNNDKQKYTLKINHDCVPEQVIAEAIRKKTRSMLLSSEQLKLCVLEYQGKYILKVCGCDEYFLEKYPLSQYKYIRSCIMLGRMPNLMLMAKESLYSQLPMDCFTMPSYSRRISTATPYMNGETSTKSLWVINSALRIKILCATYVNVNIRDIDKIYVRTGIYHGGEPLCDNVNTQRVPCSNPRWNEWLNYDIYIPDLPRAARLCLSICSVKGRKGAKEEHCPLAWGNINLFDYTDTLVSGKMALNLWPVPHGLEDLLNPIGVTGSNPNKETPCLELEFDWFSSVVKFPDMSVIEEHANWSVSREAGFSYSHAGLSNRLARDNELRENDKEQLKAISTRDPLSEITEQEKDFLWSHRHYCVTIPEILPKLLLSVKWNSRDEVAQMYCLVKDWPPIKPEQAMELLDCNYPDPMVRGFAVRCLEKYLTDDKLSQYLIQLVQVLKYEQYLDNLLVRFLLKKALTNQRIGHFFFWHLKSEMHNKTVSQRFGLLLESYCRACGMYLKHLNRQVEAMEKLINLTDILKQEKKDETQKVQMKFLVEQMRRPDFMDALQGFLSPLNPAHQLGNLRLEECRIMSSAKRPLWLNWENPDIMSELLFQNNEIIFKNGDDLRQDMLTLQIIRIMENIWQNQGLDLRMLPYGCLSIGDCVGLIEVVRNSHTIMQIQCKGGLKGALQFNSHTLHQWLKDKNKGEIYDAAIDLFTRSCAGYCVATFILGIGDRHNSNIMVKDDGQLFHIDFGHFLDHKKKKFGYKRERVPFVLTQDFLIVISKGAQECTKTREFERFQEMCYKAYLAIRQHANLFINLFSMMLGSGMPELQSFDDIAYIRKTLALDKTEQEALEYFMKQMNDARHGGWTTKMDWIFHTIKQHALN
Description for MCF7: Antiproliferative activity against human MCF7 cells after 72 hrs by CCK8 assay

Take `COc1cc(OC)cc(-c2cc3nc(-c4ccco4)c(-c4ccco4)nc3cc2Br)c1`: the IC50 in the test on MCF7 and with HCT-116 was more than 50 µM in each case. For the same molecule, in test [1], the EC50 was more than 100 µM.
As to `CC(C)(C)OC(=O)n1cccc1-c1cc2nc(-c3ccco3)c(-c3ccco3)nc2cc1Br`, the concentration for half-maximal inhibition (IC50) with MCF7 and in the test with HCT-116 was more than 50 µM in each case. Besides, the EC50 in test [1] is 18.6 µM.
`Fc1cccc(-c2cc3nc(-c4ccco4)c(-c4ccco4)nc3cc2Br)c1F`: the half-inhibitory concentration (IC50) in the test on MCF7 and in the test with HCT-116 was more than 50 µM throughout. Further, the EC50 in test [1] came out at 7.3 µM.
In the case of `COc1ccccc1-c1ccc2nc(-c3ccco3)c(-c3ccco3)nc2c1`, the IC50 with MCF7 and in the test on HCT-116 was more than 50 µM in each case. Moreover, in test [1], the EC50 turned out to be 87.3 µM.
As to `FC(F)(F)c1ccc(-c2cc3nc(-c4ccco4)c(-c4ccco4)nc3cc2Br)cc1`, the 50% inhibitory concentration (IC50) is 25.2 µM in the test on MCF7 and 14.9 µM with HCT-116. The 50% effective concentration (EC50) in test [1] came out at 0.516 µM.
On to `Brc1cc2nc(-c3ccco3)c(-c3ccco3)nc2cc1-c1cc2ccccc2o1`, for which the 50% inhibitory concentration (IC50) in the test with MCF7 and in the test on HCT-116 was more than 50 µM throughout. In addition, the EC50 in test [1] was more than 100 µM.
With `Oc1ccccc1-c1cc2nc(-c3ccco3)c(-c3ccco3)nc2cc1Br`, the IC50 in the test on MCF7 and in the test on HCT-116 was more than 50 µM throughout. In addition, the 50% effective concentration (EC50) in test [1] is more than 100 µM.
On to `Brc1cc2nc(-c3ccco3)c(-c3ccco3)nc2cc1-c1ccncc1`, for which the IC50 was more than 50 µM in the test with MCF7 and 45.7 µM in the test with HCT-116. Further, in test [1], the EC50 was 10.8 µM.
In the case of `Oc1ccccc1-c1ccc2nc(-c3ccco3)c(-c3ccco3)nc2c1`, the IC50 in the test with MCF7 and in the test on HCT-116 was more than 50 µM throughout. Moreover, the concentration giving a half-maximal response (EC50) in test [1] was 43.5 µM.
For the molecule `Fc1ccc(-c2cc3nc(-c4ccco4)c(-c4ccco4)nc3cc2Br)cc1`, the IC50 in the test on MCF7 stood at 35.1 µM; in the test with HCT-116, 38.1 µM. Further, the 50% effective concentration (EC50) in test [1] was 1.9 µM.
Turning to `c1coc(-c2nc3ccc(-c4ccncc4)cc3nc2-c2ccco2)c1`, the IC50 with MCF7 and with HCT-116 was more than 50 µM in each case. In addition, in test [1], the EC50 is more than 100 µM.
For the molecule `c1ccc2nc(N3CCOCC3)c(N3CCOCC3)nc2c1`, the IC50 with MCF7 and with HCT-116 was more than 50 µM throughout. Further, in test [1], the EC50 is more than 100 µM.
For `c1coc(-c2nc3ccc(-c4cc5ccccc5s4)cc3nc2-c2ccco2)c1`, the IC50 in the test on MCF7 and with HCT-116 was more than 50 µM throughout. For the same molecule, the EC50 in test [1] was more than 100 µM.
For `Fc1ccc2nc(-c3ccco3)c(-c3ccco3)nc2c1`, the IC50 with MCF7 and with HCT-116 was more than 50 µM throughout. In addition, the 50% effective concentration (EC50) in test [1] was more than 100 µM.
As to `c1coc(-c2nc3ccc(-c4cc5ccccc5o4)cc3nc2-c2ccco2)c1`, the IC50 with MCF7 and with HCT-116 was more than 50 µM throughout. For the same molecule, in test [1], the 50% effective concentration (EC50) is more than 100 µM.
`Clc1ccc2nc(-c3ccco3)c(-c3ccco3)nc2c1`: the half-maximal inhibitory concentration (IC50) in the test with MCF7 and with HCT-116 was more than 50 µM in each case. Also, the 50% effective concentration (EC50) in test [1] amounted to 18.1 µM.
Consider `Brc1ccccc1-c1cc2nc(-c3ccco3)c(-c3ccco3)nc2cc1Br`, for which the IC50 with MCF7 and in the test on HCT-116 was more than 50 µM in each case. The EC50 in test [1] is more than 100 µM.
Regarding `Cc1ccc2nc(-c3ccco3)c(-c3ccco3)nc2c1`, the IC50 in the test with MCF7 and in the test on HCT-116 was more than 50 µM throughout. In addition, in test [1], the concentration giving a half-maximal response (EC50) was more than 100 µM.
For `Fc1ccccc1-c1ccc2nc(-c3ccco3)c(-c3ccco3)nc2c1`, the IC50 in the test with MCF7 is more than 50 µM; in the test with HCT-116, 39.7 µM. Besides, in test [1], the EC50 was 12.7 µM.
As to `c1ccc(-c2nc3ccccc3nc2-c2ccccc2)cc1`, the half-inhibitory concentration (IC50) with MCF7 and in the test with HCT-116 was more than 50 µM each time. Besides, in test [1], the EC50 was more than 100 µM.
Consider `Brc1cc2nc(-c3ccco3)c(-c3ccco3)nc2cc1-c1cc2ccccc2s1`, for which the values for the 50% inhibitory concentration (IC50) in the test with MCF7 and in the test on HCT-116 were 40.9 µM and 38.5 µM, respectively. Further, the EC50 in test [1] worked out at 1.2 µM.
Turning to `c1csc(-c2nc3ccccc3nc2-c2cccs2)c1`, the IC50 with MCF7 and with HCT-116 was more than 50 µM in each case. Further, the half-maximal effective concentration (EC50) in test [1] is more than 100 µM.

As usually defined, the IC50 is the point on the concentration scale where inhibition reaches its midpoint. The low end stands for greater potency in that assay, the high end for weaker potency in that assay. One may read the EC50 as the concentration that produces a half-maximal response.
